Experimental data as given in patent US11096389B2, “Alkanolamine sulfate water conditioners” (Indorama Ventures Oxides LLC, priority 2014, dated 2021).
“And” between values parts separate entries of the source, which are not always exact repeats. Equal entries are not always repeated.

What was measured:
[1] = TGA; mixture of water, dicamba-DGA and water conditioning agent at field-use concentrations
Text: A comparison of the increase in auxin herbicide volatility in various water conditioning agents was done by preparing mixtures of water, herbicide (dicamba diglycolamine (DGA) salt in this case), and water conditioning agent. Concentration of the solutions mimics actual agricultural field-use concentrations. In this test, done using thermogravimetric analysis (TGA), a comparison was made between a control (dicamba-DGA alone) to dicamba-DGA plus a water conditioning agent.

corn = assay: Field trial, water conditioning effect with glyphosate, visual injury; type: in vivo; conditions: for % Control 2 Weeks Post Treatment, Mean / % Control 4 Weeks Post Treatment, Mean: mean of 3 plots; for % Control 2 Weeks Post Treatment / % Control 4 Weeks Post Treatment: single plots
Experimental: (§1) A field trial was conducted to compare the efficacy of the herbicide glyphosate (diluted to less than its label use rate with distilled water or water containing 1000 ppm (calcium+magnesium)), with or without water conditioning agents of the present disclosure. In this trial, the glyphosate-containing spray was applied to flax, amaranth, sunflower and corn. The glyphosate used in this field trial was Touchdown® HT herbicide and its spray application rate was kept constant at 9.6 fl oz/a. A non-ionic surfactant (Activator 90 surfactant) was also applied with the herbicide at a constant spray application rate of 0.5% v/v. Finally, the water conditioning agents of the present disclosure, when present, were applied at spray application rates of 0.75% v/v and 1.0% v/v. Flax, amaranth, sunflower and corn, which had been plotted at various locations throughout the field, were spray treated and visually assessed on a particular day after treatment for injury on a scale of 0 to 100%, with zero representing “no” injury and 100% representing “complete” injury or death. The water conditioning agents tested during this trial included: […]

flax = assay: as above; type: in vivo; conditions: for % Control 2 Weeks Post Treatment, Mean / % Control 4 Weeks Post Treatment, Mean: mean of 3 plots; for % Control 2 Weeks Post Treatment / % Control 4 Weeks Post Treatment: single plots
Experimental: as §1

amaranth = assay: as above; type: in vivo; conditions: for % Control 2 Weeks Post Treatment, Mean / % Control 4 Weeks Post Treatment, Mean: mean of 3 plots; for % Control 2 Weeks Post Treatment / % Control 4 Weeks Post Treatment: single plots
Experimental: as §1

sunflower = assay: as above; type: in vivo; conditions: for % Control 2 Weeks Post Treatment, Mean / % Control 4 Weeks Post Treatment, Mean: mean of 3 plots; for % Control 2 Weeks Post Treatment / % Control 4 Weeks Post Treatment: single plots
Experimental: as §1

[2] = Compatibility with glyphosate herbicide solution; type: physicochemical; conditions: 950 g water with 1000 ppm calcium, 30 g MEA sulfate solution, 20 g ROUNDUP ULTRA MAX
Experimental: A mixture of 950 grams water containing 1000 ppm calcium, 30 grams of the MEA sulfate solution from Example 1, and 20 grams of ROUNDUP ULTRA® MAX herbicide (The Scotts Company LLC of Marysville, Ohio) was prepared.

[3] = glyphosate in distilled water + non-ionic surfactant
[4] = glyphosate in hard water + non-ionic surfactant, no water conditioner
[5] = glyphosate in hard water + non-ionic surfactant + sulfate at 0.75% v/v
[6] = glyphosate in hard water + non-ionic surfactant + sulfate at 1.0% v/v

COc1c(Cl)ccc(Cl)c1C(=O)O [Dicamba-DGA, 3,6-dichloro-2-methoxybenzoic acid]
Relative Volatility [1]: 0.01185

O=C(O)CNCP(=O)(O)O [Glyphosate, N-(phosphonomethyl) glycine, reference compound]
% Control 2 Weeks Post Treatment, Mean (corn; [3]): 53.3% | % Control 4 Weeks Post Treatment, Mean (corn; [3]): 56.7% | % Control 2 Weeks Post Treatment (corn; [3]): 50% and 60% | % Control 4 Weeks Post Treatment (corn; [3]): 55% and 60% | % Control 2 Weeks Post Treatment, Mean (corn; [4]): 33.3% | % Control 4 Weeks Post Treatment, Mean (corn; [4]): 33.3% | % Control 2 Weeks Post Treatment (corn; [4]): 30% and 35% | % Control 4 Weeks Post Treatment (corn; [4]): 30% and 35% | % Control 2 Weeks Post Treatment, Mean (flax; [3]): 53.3% | % Control 4 Weeks Post Treatment, Mean (flax; [3]): 56.7% | % Control 2 Weeks Post Treatment (flax; [3]): 50% and 60% | % Control 4 Weeks Post Treatment (flax; [3]): 55% and 60% | % Control 2 Weeks Post Treatment, Mean (flax; [4]): 33.3% | % Control 4 Weeks Post Treatment, Mean (flax; [4]): 33.3% | % Control 2 Weeks Post Treatment (flax; [4]): 30% and 35% | % Control 4 Weeks Post Treatment (flax; [4]): 30% and 35% | % Control 2 Weeks Post Treatment, Mean (amaranth; [3]): 53.3% | % Control 4 Weeks Post Treatment, Mean (amaranth; [3]): 56.7% | % Control 2 Weeks Post Treatment (amaranth; [3]): 50% and 60% | % Control 4 Weeks Post Treatment (amaranth; [3]): 55% and 60% | % Control 2 Weeks Post Treatment, Mean (amaranth; [4]): 33.3% | % Control 4 Weeks Post Treatment, Mean (amaranth; [4]): 33.3% | % Control 2 Weeks Post Treatment (amaranth; [4]): 30% and 35% | % Control 4 Weeks Post Treatment (amaranth; [4]): 30% and 35% | % Control 2 Weeks Post Treatment, Mean (sunflower; [3]): 53.3% | % Control 4 Weeks Post Treatment, Mean (sunflower; [3]): 56.7% | % Control 2 Weeks Post Treatment (sunflower; [3]): 50% and 60% | % Control 4 Weeks Post Treatment (sunflower; [3]): 55% and 60% | % Control 2 Weeks Post Treatment, Mean (sunflower; [4]): 33.3% | % Control 4 Weeks Post Treatment, Mean (sunflower; [4]): 33.3% | % Control 2 Weeks Post Treatment (sunflower; [4]): 30% and 35% | % Control 4 Weeks Post Treatment (sunflower; [4]): 30% and 35%

monoethanolamine sulfate [Sulfate 1]
% Control 2 Weeks Post Treatment, Mean (corn; [5]): 68.7% | % Control 4 Weeks Post Treatment, Mean (corn; [5]): 79.3% | % Control 2 Weeks Post Treatment (corn; [5]): 68% and 70% | % Control 4 Weeks Post Treatment (corn; [5]): 80% and 78% | % Control 2 Weeks Post Treatment, Mean (corn; [6]): 77.7% | % Control 4 Weeks Post Treatment, Mean (corn; [6]): 86% | % Control 2 Weeks Post Treatment (corn; [6]): 80% and 75% and 78% | % Control 4 Weeks Post Treatment (corn; [6]): 88% and 85% | % Control 2 Weeks Post Treatment, Mean (flax; [5]): 51.7% | % Control 4 Weeks Post Treatment, Mean (flax; [5]): 51.7% | % Control 2 Weeks Post Treatment (flax; [5]): 45% and 50% and 60% | % Control 4 Weeks Post Treatment (flax; [5]): 45% and 50% and 60% | % Control 2 Weeks Post Treatment, Mean (flax; [6]): 48.3% | % Control 4 Weeks Post Treatment, Mean (flax; [6]): 48.3% | % Control 2 Weeks Post Treatment (flax; [6]): 55% and 45% | % Control 4 Weeks Post Treatment (flax; [6]): 55% and 45% | % Control 2 Weeks Post Treatment, Mean (amaranth; [5]): 72.7% | % Control 4 Weeks Post Treatment, Mean (amaranth; [5]): 72.7% | % Control 2 Weeks Post Treatment (amaranth; [5]): 75% and 68% | % Control 4 Weeks Post Treatment (amaranth; [5]): 75% and 68% | % Control 2 Weeks Post Treatment, Mean (amaranth; [6]): 81.7% | % Control 4 Weeks Post Treatment, Mean (amaranth; [6]): 71.7% | % Control 2 Weeks Post Treatment (amaranth; [6]): 80% and 85% | % Control 4 Weeks Post Treatment (amaranth; [6]): 70% and 75% | % Control 2 Weeks Post Treatment, Mean (sunflower; [5]): 71% | % Control 4 Weeks Post Treatment, Mean (sunflower; [5]): 71% | % Control 2 Weeks Post Treatment (sunflower; [5]): 70% and 75% and 68% | % Control 4 Weeks Post Treatment (sunflower; [5]): 70% and 75% and 68% | % Control 2 Weeks Post Treatment, Mean (sunflower; [6]): 85% | % Control 4 Weeks Post Treatment, Mean (sunflower; [6]): 80% | % Control 2 Weeks Post Treatment (sunflower; [6]): 85% | % Control 4 Weeks Post Treatment (sunflower; [6]): 80% | physical and chemical compatibility with glyphosate-containing formulation [2]: clear, homogenous solution
